Data as given in US10406169B2, “Methods of monitoring estriol therapy” (The Regents of the University of California, priority 2015, dated 2019).

Test system: relapsing-remitting multiple sclerosis
Assay: MRI brain volumes (pairwise Jacobian integration)
Assay type: in vivo, human
Description: Mixed effects negative binomial regression model and linear mixed effects model were used to compare enhancing lesion volume (log-transformed) between treatment groups at all follow-ups, and mixed effects logistic model was used to compare the number of subjects positive for gadolinium enhancing lesions. Linear mixed effects model was carried out to compare the percent change in whole gray matter and cortical gray matter between treatment groups. For the exploratory endpoints of EDSS, PASAT, fatigue, depression, quality of life and brain volume measures, linear mixed effects model was used to compare treatment groups at 12 and 24 months.
Dual-echo fast spin echo: TR10000, TE12/95, 50 slices, 1×1×3 mm. Fluid attenuated inversion recovery (FLAIR): TR10380, TE88, TI88, TI2500, 50 slices, 1×1×3 mm. Minor changes were allowed to accommodate different platforms and field strengths at each site. MRI data in Dicom format were fully anonymized prior to transfer and then uploaded to the central MRI reading center database. Prior to study onset, each site provided a dummy scan utilizing the standardized sequences for review by the central MRI reading center to verify scan quality and fidelity. Quality control was maintained at each site using standard procedures for clinical scanners (daily phantoms, stability testing). Quarterly phantoms were collected from 12 of the 15 sites, most using the standard American College of Radiology (ACR) phatom. One site upgraded from a Siemens 1.5T to a 3.0T in November 2013, resulting in the acquisition of one month 24 scan on the new scanner. One site upgraded from a Phillips Achieva 3.0T to a Pillips Intera 3.0T after the first subject completed month 24. All subsequent studies were performed on the Intera.
MRI brain, whole gray matter, whole white matter and cortical gray matter volumes were determined using a pairwise Jacobian integration (PJI) method. Pre-processing for structural T1-weighted images included 1) N3 non-uniformity correction, 2) histogram-based intensity normalization, 3) linear standard space registration using ICBM 2009c nonlinear symmetric template, 4) patch-based brain extraction, and 5) lesion-inpainting. Inputs to PJI were a pair of baseline and follow-up pre-processed structural T1-weighed images. The PJI consisted of 1) linear skull-constrained symmetric registration, 2) halfway transformation and resampling, 3) nonlinear symmetric registration using ANTS, and 4) voxelwise Jacobian determinant calculation on the warp field. Whole gray matter and whole white matter tissue masks were generated by SPM8 Segment function. Additional nonlocal means denoising was applied. For whole brain tissue masks, the whole gray matter and whole white matter masks were combined. For cortical gray matter mask, a standard cortical mask was nonlinearly transformed and merged with gray matter mask. The standard template was the ICBM (ICBM 2009c nonlinear symmetric version), and the nonlinear registration was performed by ANTS. Finally, the Jacobian determinants were averaged within the masks for percent volume change in cortical gray matter, whole gray matter, whole white matter, and whole brain.

[1] = Baseline to 12 months, all patients
[2] = Baseline to 12 months, all patients, listed as Placebo+GA
[3] = Baseline to 12 months, patients with enhancing lesions at baseline
[4] = Baseline to 12 months, patients without enhancing lesions at baseline
[5] = Baseline to 12 months, patients without enhancing lesions at baseline, listed as Placebo+GA
[6] = Baseline to 24 months, all patients
[7] = Baseline to 24 months, patients with enhancing lesions at baseline
[8] = Baseline to 24 months, patients without enhancing lesions at baseline

glatiramer acetate [Placebo + GA]
Cortical gray matter baseline volume (Baseline): 761 ± 42 cc | White matter baseline volume (Baseline): 640 ± 32 cc | Whole brain baseline volume (Baseline): 1602 ± 51 cc | Whole gray matter baseline volume (Baseline): 926 ± 52 cc | Cortical gray matter volume % change, Mean ± SE [1]: −0.74 ± 0.81, % | Cortical gray matter volume % change, median [1]: −0.69% | White matter volume % change, Mean ± SE [1]: −0.21 ± 0.82, % | White matter volume % change, median [1]: −0.15% | Whole brain volume % change, Mean ± SE [1]: −0.49 ± 0.63, % | Whole brain volume % change, median [1]: −0.43% | Whole gray matter volume % change, Mean ± SE [1]: −0.68 ± 0.71, % | Whole gray matter volume % change, median [1]: −0.66% | Cortical gray matter volume % change, Mean ± SE [2]: −0.74% | Whole gray matter volume % change, Mean ± SE [2]: −0.68% | Cortical gray matter volume % change, Mean ± SE [3]: −0.67 ± 0.72, % | Cortical gray matter volume % change, median [3]: −0.69% | White matter volume % change, Mean ± SE [3]: −0.36 ± 1.06, % | White matter volume % change, median [3]: −0.14% | Whole gray matter volume % change, Mean ± SE [3]: −0.65 ± 0.64, % | Whole gray matter volume % change, median [3]: −0.64% | Cortical gray matter volume % change, Mean ± SE [4]: −0.76 ± 0.85, % | Cortical gray matter volume % change, median [4]: −0.73% | White matter volume % change, Mean ± SE [4]: −0.15 ± 0.71, % | White matter volume % change, median [4]: −0.15% | Whole gray matter volume % change, Mean ± SE [4]: −0.70 ± 0.74, % | Whole gray matter volume % change, median [4]: −0.66% | Cortical gray matter volume % change, Mean ± SE [5]: −0.76% | Whole gray matter volume % change, Mean ± SE [5]: −0.70% | Cortical gray matter volume % change, Mean ± SE [6]: −1.05 ± 0.86, % | Cortical gray matter volume % change, median [6]: −0.94% | White matter volume % change, Mean ± SE [6]: −0.52 ± 1.12, % | White matter volume % change, median [6]: −0.54% | Whole brain volume % change, Mean ± SE [6]: −0.77 ± 0.72, % | Whole brain volume % change, median [6]: −0.88% | Whole gray matter volume % change, Mean ± SE [6]: −0.95 ± 0.75, % | Whole gray matter volume % change, median [6]: −0.93% | Cortical gray matter volume % change, Mean ± SE [7]: −0.82 ± 0.80, % | Cortical gray matter volume % change, median [7]: −0.93% | White matter volume % change, Mean ± SE [7]: −0.62 ± 0.97, % | White matter volume % change, median [7]: −0.84% | Whole gray matter volume % change, Mean ± SE [7]: −0.82 ± 0.70, % | Whole gray matter volume % change, median [7]: −0.92% | Cortical gray matter volume % change, Mean ± SE [8]: −1.12 ± 0.88, % | Cortical gray matter volume % change, median [8]: −0.94% | White matter volume % change, Mean ± SE [8]: −0.46 ± 1.17, % | White matter volume % change, median [8]: −0.48% | Whole gray matter volume % change, Mean ± SE [8]: −0.98 ± 0.77, % | Whole gray matter volume % change, median [8]: −0.92%
